From ChEMBL document CHEMBL3396960, “Synthesis and pharmacological characterization of 2-aminobenzaldehyde oxime analogs as dual inhibitors of neutrophil elastase and proteinase 3” (Bioorg Med Chem, 2015)
Activity calls are given as the source filed them. The rule behind the calls is not given here.

What was measured:
Cathepsin G = target: T1, Cathepsin G (Homo sapiens, UniProt P08311); assay: Inhibition of human cathepsin G using N-succinyl-Ala-Ala-Pro-Phe-p-nitroanilide as substrate measured for 180 mins by spectrophotometry
T1 sequence (P08311 whole entry): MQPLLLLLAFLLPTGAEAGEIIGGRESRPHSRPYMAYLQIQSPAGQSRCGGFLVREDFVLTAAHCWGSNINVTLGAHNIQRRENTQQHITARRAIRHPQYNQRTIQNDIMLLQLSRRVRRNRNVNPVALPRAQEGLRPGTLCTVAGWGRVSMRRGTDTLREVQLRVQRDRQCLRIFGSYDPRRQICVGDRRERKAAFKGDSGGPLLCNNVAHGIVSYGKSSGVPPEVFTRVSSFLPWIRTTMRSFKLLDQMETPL

Neutrophil [1] = assay: cells; conditions: Homo sapiens
Mus musculus [2] = assay: Protection from LPS-induced acute lung injury in C57BL/6 mouse assessed as inhibition of LPS-induced leukocyte infiltration treated 1 hr prior LPS challenge at 100 mg/kg, ip measured 6 hrs post LPS injection by hematoxylin and eosin staining method
Mus musculus [3] = assay: Protection from LPS-induced acute lung injury in C57BL/6 mouse assessed as inhibition of LPS-induced lung tissue destruction treated 1 hr prior LPS challenge at 100 mg/kg, ip measured 6 hrs post LPS injection by hematoxylin and eosin staining method
Mus musculus [4] = assay: Toxicity in C57BL/6 mouse assessed as effect on lung structure at 100 mg/kg, ip by hematoxylin and eosin staining method; type: organism-based; set-up: dose 100 mg/kg, route intraperitoneal; conditions: in vivo
Mus musculus [5] = assay: Toxicity in C57BL/6 mouse assessed as effect on pulmonary alveoli at 100 mg/kg, ip by hematoxylin and eosin staining method; type: organism-based; set-up: dose 100 mg/kg, route intraperitoneal; conditions: in vivo
Mus musculus [6] = assay: Protection from LPS-induced acute lung injury in C57BL/6 mouse assessed as inhibition of MPO activity in lung tissue treated 1 hr prior challenge at 100 mg/kg, ip
[7] = Inhibition of bovine pancreatic trypsin using Nalpha-benzoyl-L-arginine-7-amido-4-methylcoumarin; set-up: species or system Bos taurus
[8] = Inhibition of bovine pancreas chymotrypsin using N-succinyl-Ala-Ala-Pro-Phe-7-amido-4-methylcoumarin by spectrophotometry; set-up: species or system Bos taurus
Mus musculus [9] = assay: Antiinflammatory activity in C57BL/6 mouse assessed as inhibition of LPS-induced edema compound treated 1 hr prior challenge at 100 mg/kg, ip measured up to 240 mins; type: functional, organism-based; set-up: dose 100 mg/kg
Pancreatic elastase = Pancreatic elastase (Sus scrofa, UniProt P08419+P00772); assay: Inhibition of porcine pancreatic elastase using methoxysuccinyl-Ala-Ala-Pro-Val-p-nitroanilide as substrate preincubated for 15 mins before substrate addition measured after 60 mins by spectrophotometry; type: protein assay
Mus musculus [10] = assay: Protection from LPS-induced acute lung injury in C57BL/6 mouse assessed as inhibition of LPS-induced alveolar thickening treated 1 hr prior LPS challenge at 100 mg/kg, ip measured 6 hrs post LPS injection by hematoxylin and eosin staining method
Prothrombin = Prothrombin (Bos taurus, UniProt P00735); assay: Inhibition of bovine plasma thrombin using Benzoyl-Phe-Val-Arg-7-amido-4-methylcoumarin hydrochloride by spectrophotometry
Mus musculus [11] = assay: Antiinflammatory activity in C57BL/6 mouse assessed as inhibition of human neutrophil elastase-induced edema compound treated ip 1 hr prior challenge measured up to 240 mins post dose; type: functional, organism-based
Neutrophil elastase [12] = target: T2, Neutrophil elastase (Mus musculus, UniProt Q3UP87); assay: Inhibition of recombinant mouse neutrophil elastase using methoxysuccinyl-Ala-Ala-Pro-Val-pnitroanilide as substrate preincubated for 15 mins before substrate addition measured after 90 mins by spectrophotometry
T2 sequence (Q3UP87 whole entry): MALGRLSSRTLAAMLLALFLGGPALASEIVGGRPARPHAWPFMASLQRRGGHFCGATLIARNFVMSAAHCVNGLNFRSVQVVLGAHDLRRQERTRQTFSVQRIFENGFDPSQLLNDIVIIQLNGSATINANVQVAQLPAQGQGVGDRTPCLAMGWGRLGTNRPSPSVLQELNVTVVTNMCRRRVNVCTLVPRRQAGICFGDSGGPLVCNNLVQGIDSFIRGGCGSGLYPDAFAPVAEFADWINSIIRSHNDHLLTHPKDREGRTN

Mus musculus [13] = assay: Antiinflammatory activity in C57BL/6 mouse assessed as inhibition of human neutrophil elastase-induced edema compound treated 1 hr prior challenge at 50 to 100 mg/kg, ip; type: functional, organism-based; conditions: TDE = time-dependent effect
Mus musculus [14] = assay: Protection from LPS-induced acute lung injury in C57BL/6 mouse assessed as inhibition of LPS-induced diffuse edematous changes treated 1 hr prior LPS challenge at 100 mg/kg, ip measured 6 hrs post LPS injection by hematoxylin and eosin staining method
Mus musculus [15] = assay: Protection from LPS-induced acute lung injury in C57BL/6 mouse assessed as inhibition of leukocyte infiltration in lung treated 1 hr prior challenge at 100 mg/kg, ip
Myeloblastin = target: T3, Myeloblastin (Homo sapiens, UniProt P24158); assay: Inhibition of Pr3 (unknown origin) using t-butyloxycarbonyl-Ala-Ala-Nva-thiobenzyl ester as substrate measured for 180 mins by spectrophotometry
T3 sequence (P24158 whole entry): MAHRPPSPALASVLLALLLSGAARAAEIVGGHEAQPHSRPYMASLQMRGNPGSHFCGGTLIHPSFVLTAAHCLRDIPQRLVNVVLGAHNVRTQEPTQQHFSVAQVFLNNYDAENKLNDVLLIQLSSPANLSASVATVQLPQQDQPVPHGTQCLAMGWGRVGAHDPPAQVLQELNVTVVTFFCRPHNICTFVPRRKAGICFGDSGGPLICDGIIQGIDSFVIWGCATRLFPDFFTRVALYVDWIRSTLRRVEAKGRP

Mus musculus [16] = assay: Antiinflammatory activity in C57BL/6 mouse assessed as inhibition of human neutrophil elastase-induced edema compound treated 1 hr prior challenge at 100 mg/kg, ip measured up to 240 mins; type: functional, organism-based; set-up: dose 100 mg/kg
Neutrophil elastase [17] = target: T4, Neutrophil elastase (Homo sapiens, UniProt P08246); assay: Inhibition of human neutrophil elastase measured for 30 mins by spectrophotometry
T4 sequence (P08246 whole entry): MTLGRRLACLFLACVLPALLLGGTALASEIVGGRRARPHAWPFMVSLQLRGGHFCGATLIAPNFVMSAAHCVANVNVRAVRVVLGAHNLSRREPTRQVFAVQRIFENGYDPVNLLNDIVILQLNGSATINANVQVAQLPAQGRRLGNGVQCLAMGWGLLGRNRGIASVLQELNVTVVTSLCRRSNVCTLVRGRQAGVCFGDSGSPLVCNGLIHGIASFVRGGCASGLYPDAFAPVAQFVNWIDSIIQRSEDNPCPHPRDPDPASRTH

Neutrophil [18] = assay: cells; conditions: Homo sapiens; remark: listed apart in the source

| SMILES | IC50 (Cathepsin G) [µM] | IC50 (Neutrophil [1]) [µM] | IC50 (Neutrophil elastase [17]) [µM] | IC50 (Neutrophil [18]) [µM] | also measured |
| --- | --- | --- | --- | --- | --- |
| CC(C)(C)C(=O)Oc1ccc(S(=O)(=O)Nc2ccccc2/C=N\O)cc1 | > 10 | > 20 | – | – | – |
| C/C(=N/O)c1ccccc1NS(=O)(=O)c1ccc(OC(=O)C(C)(C)C)cc1 | > 10 | 19.6 | – | – | inhibition (Mus musculus [2]): Active; inhibition (Mus musculus [3]): Active; Activity (Mus musculus [4]): Non-toxic; Activity (Mus musculus [5]): Non-toxic; inhibition (Mus musculus [6]): Active; IC50 [7]: > 10 µM; IC50 [8]: 0.594 µM; inhibition (Mus musculus [9]): Active; IC50 (Pancreatic elastase): 1.88198 µM; inhibition (Mus musculus [10]): Active; IC50 (Prothrombin): > 10 µM; inhibition (Mus musculus [11]): Dose-dependent effect; IC50 (Neutrophil elastase [12]): 0.191 µM; inhibition (Mus musculus [13]): tde; inhibition (Mus musculus [14]): Active; inhibition (Mus musculus [15]): Active |
| CCC/C(=N/O)c1ccccc1NS(=O)(=O)c1ccc(OC(=O)C(C)(C)C)cc1 | > 10 | > 20 | – | – | – |
| CC(C)(C)C(=O)Oc1ccc(S(=O)(=O)Nc2ccccc2C(=O)NCC(=O)O)cc1 | > 10 | > 20 | – | – | inhibition (Mus musculus [2]): Active; inhibition (Mus musculus [3]): Active; inhibition (Mus musculus [6]): Active; IC50 [7]: > 10 µM; IC50 [8]: 1.95 µM; inhibition (Mus musculus [9]): Active; IC50 (Pancreatic elastase): 2.18517 µM; inhibition (Mus musculus [10]): Active; IC50 (Myeloblastin): 0.34 µM; IC50 (Prothrombin): > 10 µM; inhibition (Mus musculus [16]): Active; IC50 (Neutrophil elastase [12]): 0.145 µM; inhibition (Mus musculus [14]): Active; inhibition (Mus musculus [15]): Active |
| CCC(=O)c1ccccc1NS(=O)(=O)c1ccc(OC(=O)C(C)(C)C)cc1 | > 10 | > 20 | 0.19 | – | – |
| CCCOC(=O)c1ccccc1NC(=O)c1ccc(OC(=O)C(C)(C)C(F)(F)F)cc1 | > 10 | > 20 | > 10 | > 20 | IC50 (Myeloblastin): > 10 µM |
| CO/N=C(\C)c1ccccc1NS(=O)(=O)c1ccc(OC(=O)C(C)(C)C)cc1 | > 10 | > 20 | – | – | – |
| CCCCC(=O)c1ccccc1NS(=O)(=O)c1ccc(OC(=O)C(C)(C)C)cc1 | > 10 | > 20 | 2.24 | 0.11 | – |
| COC(=O)c1ccccc1NC(=O)c1ccc(OC(=O)C(C)(C)C(F)(F)F)cc1 | > 10 | > 20 | > 10 | > 20 | IC50 (Myeloblastin): > 10 µM |
| COC(=O)c1ccccc1NS(=O)(=O)c1ccc(OC(=O)C(C)(C)C(F)(F)F)cc1 | > 10 | – | – | 4.94 | – |
| CCCOC(=O)c1ccccc1NC(=O)c1ccc(OC(=O)C(C)(C)C)cc1 | > 10 | > 20 | 1.23 | 0.62 | – |
| COC(=O)c1ccccc1NC(=O)c1ccc(OC(=O)C(C)(C)C)cc1 | > 10 | > 20 | 0.82 | 0.55 | – |
